Assay results: ChEMBL document CHEMBL1926681, “Novel inhibitors of epidermal growth factor receptor: (4-(Arylamino)-7H-pyrrolo[2,3-d]pyrimidin-6-yl)(1H-indol-2-yl)methanones and (1H-indol-2-yl)(4-(phenylamino)thieno[2,3-d]pyrimidin-6-yl)methanones” (Bioorg Med Chem, 2012)
Active and inactive are the calls of the source. The calls are words filed in the database; no cut-off is given here.

Legend:
[1] = target: T1, Epidermal growth factor receptor (Homo sapiens, UniProt P00533); assay: Inhibition of EGFR using poly(Glu,Tyr)4:1 as substrate and [gamma33P]ATP at 1 uM after 60 mins by scintillation counting
T1 sequence (P00533 whole entry): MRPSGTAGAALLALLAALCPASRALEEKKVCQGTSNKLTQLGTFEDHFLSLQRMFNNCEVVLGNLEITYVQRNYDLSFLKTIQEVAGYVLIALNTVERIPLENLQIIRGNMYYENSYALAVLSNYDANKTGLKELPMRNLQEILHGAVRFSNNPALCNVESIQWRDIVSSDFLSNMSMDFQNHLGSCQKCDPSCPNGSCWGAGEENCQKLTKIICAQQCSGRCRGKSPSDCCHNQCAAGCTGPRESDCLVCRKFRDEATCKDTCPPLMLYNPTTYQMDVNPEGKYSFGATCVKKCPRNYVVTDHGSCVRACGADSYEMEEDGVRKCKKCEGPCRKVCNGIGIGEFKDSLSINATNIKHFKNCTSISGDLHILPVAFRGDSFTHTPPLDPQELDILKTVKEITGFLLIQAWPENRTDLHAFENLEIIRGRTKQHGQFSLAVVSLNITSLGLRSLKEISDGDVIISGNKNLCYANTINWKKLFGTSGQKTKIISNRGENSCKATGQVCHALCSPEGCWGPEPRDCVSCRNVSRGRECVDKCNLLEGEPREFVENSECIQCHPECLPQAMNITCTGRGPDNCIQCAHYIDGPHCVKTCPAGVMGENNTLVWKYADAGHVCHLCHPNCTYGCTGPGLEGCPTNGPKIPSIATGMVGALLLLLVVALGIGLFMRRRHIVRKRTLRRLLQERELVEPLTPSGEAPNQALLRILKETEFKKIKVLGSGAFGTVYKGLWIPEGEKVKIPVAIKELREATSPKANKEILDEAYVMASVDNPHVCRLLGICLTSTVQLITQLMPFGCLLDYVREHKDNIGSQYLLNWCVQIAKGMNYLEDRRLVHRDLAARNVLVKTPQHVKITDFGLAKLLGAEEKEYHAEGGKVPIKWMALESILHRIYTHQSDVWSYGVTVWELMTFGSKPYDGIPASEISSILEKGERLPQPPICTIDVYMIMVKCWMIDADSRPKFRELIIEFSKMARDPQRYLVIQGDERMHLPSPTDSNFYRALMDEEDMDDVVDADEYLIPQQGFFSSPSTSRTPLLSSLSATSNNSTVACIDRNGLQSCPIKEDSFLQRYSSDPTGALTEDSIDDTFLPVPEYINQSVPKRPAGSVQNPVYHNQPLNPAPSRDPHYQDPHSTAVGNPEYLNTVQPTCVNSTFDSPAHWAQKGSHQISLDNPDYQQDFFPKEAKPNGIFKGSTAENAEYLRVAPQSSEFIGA

[2] = target: T1, Epidermal growth factor receptor; assay: Inhibition of EGFR using poly(Glu,Tyr)4:1 as substrate and [gamma33P]ATP after 60 mins by scintillation counting
[3] = target: Receptor tyrosine-protein kinase erbB-2 (Homo sapiens) (UniProt P04626); assay: Inhibition of Erbb2 using poly(Glu,Tyr)4:1 as substrate and [gamma33P]ATP at 1 uM after 60 mins by scintillation counting
Receptor tyrosine-protein kinase erbB-2 (Homo sapiens), sequence (P04626 whole entry): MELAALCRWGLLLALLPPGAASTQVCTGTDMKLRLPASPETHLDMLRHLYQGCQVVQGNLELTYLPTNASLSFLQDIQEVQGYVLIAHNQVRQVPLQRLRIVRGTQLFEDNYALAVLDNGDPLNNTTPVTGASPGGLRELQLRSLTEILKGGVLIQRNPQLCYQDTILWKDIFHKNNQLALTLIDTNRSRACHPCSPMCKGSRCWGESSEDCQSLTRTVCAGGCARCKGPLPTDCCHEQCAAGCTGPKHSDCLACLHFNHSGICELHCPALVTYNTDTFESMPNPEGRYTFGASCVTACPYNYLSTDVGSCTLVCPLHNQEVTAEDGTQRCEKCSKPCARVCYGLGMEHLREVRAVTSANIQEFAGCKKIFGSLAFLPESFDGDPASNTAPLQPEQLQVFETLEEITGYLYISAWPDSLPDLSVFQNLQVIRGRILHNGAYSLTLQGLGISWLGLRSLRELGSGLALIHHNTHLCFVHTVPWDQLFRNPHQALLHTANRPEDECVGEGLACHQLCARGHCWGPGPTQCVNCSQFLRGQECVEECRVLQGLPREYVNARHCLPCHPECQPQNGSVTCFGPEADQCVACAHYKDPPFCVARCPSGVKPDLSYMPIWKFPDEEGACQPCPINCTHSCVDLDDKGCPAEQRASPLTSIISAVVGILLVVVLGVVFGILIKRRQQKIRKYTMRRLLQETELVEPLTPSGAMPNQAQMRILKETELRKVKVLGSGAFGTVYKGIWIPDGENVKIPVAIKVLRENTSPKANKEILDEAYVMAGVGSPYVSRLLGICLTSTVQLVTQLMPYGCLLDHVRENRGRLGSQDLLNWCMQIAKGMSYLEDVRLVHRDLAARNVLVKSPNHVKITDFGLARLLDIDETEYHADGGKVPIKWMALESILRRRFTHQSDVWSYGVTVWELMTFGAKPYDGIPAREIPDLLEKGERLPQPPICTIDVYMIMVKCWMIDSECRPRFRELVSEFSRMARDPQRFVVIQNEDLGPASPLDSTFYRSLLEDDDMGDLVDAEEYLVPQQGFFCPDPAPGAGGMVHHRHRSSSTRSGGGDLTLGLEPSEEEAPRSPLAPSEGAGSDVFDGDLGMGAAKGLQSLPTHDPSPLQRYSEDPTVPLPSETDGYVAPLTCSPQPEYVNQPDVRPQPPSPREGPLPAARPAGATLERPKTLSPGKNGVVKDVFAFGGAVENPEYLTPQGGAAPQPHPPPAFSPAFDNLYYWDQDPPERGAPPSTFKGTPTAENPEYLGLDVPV

[4] = target: Vascular endothelial growth factor receptor 2 (Homo sapiens) (UniProt P35968); assay: Inhibition of VEGFR2 using poly(Glu,Tyr)4:1 as substrate and [gamma33P]ATP at 1 uM after 60 mins by scintillation counting
[5] = target: Tyrosine-protein kinase ABL1 (Homo sapiens) (UniProt P00519); assay: Inhibition of ABL1 using poly(Ala, Glu, Lys, Tyr) as substrate and [gamma33P]ATP at 1 uM after 60 mins by scintillation counting
Tyrosine-protein kinase ABL1 (Homo sapiens), sequence (P00519 whole entry): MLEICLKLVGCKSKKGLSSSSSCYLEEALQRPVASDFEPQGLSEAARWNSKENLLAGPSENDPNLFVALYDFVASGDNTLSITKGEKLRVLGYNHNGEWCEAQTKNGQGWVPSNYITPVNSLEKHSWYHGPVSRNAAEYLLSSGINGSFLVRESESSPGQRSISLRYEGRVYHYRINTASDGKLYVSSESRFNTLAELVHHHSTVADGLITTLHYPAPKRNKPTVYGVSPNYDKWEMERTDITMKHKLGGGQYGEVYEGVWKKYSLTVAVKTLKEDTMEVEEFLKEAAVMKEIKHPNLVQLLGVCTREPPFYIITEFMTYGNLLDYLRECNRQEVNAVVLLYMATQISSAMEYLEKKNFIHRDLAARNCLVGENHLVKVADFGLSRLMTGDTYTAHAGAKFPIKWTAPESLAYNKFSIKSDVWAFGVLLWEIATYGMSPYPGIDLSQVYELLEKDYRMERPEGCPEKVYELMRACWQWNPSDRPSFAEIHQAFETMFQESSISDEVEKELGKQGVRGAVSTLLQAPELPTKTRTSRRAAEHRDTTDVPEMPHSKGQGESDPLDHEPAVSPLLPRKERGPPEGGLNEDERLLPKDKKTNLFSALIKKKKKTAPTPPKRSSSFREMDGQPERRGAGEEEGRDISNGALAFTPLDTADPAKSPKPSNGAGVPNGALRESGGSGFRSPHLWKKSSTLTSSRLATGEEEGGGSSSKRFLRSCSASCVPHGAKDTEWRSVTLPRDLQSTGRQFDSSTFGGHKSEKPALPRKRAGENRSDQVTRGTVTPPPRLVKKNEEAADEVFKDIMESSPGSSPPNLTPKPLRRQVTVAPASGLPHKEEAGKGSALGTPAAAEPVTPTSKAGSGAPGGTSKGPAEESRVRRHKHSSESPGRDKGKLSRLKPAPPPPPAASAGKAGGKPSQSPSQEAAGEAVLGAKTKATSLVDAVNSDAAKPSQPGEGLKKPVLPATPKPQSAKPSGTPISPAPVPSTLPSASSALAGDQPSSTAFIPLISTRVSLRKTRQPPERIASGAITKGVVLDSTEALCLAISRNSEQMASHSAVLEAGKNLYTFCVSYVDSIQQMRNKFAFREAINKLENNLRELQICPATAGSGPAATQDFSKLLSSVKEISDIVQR

[6] = target: Hepatocyte growth factor receptor (Homo sapiens) (UniProt P08581); assay: Inhibition of MET using poly(Ala, Glu, Lys, Tyr) as substrate and [gamma33P]ATP at 1 uM after 60 mins by scintillation counting
Hepatocyte growth factor receptor (Homo sapiens), sequence (P08581 whole entry): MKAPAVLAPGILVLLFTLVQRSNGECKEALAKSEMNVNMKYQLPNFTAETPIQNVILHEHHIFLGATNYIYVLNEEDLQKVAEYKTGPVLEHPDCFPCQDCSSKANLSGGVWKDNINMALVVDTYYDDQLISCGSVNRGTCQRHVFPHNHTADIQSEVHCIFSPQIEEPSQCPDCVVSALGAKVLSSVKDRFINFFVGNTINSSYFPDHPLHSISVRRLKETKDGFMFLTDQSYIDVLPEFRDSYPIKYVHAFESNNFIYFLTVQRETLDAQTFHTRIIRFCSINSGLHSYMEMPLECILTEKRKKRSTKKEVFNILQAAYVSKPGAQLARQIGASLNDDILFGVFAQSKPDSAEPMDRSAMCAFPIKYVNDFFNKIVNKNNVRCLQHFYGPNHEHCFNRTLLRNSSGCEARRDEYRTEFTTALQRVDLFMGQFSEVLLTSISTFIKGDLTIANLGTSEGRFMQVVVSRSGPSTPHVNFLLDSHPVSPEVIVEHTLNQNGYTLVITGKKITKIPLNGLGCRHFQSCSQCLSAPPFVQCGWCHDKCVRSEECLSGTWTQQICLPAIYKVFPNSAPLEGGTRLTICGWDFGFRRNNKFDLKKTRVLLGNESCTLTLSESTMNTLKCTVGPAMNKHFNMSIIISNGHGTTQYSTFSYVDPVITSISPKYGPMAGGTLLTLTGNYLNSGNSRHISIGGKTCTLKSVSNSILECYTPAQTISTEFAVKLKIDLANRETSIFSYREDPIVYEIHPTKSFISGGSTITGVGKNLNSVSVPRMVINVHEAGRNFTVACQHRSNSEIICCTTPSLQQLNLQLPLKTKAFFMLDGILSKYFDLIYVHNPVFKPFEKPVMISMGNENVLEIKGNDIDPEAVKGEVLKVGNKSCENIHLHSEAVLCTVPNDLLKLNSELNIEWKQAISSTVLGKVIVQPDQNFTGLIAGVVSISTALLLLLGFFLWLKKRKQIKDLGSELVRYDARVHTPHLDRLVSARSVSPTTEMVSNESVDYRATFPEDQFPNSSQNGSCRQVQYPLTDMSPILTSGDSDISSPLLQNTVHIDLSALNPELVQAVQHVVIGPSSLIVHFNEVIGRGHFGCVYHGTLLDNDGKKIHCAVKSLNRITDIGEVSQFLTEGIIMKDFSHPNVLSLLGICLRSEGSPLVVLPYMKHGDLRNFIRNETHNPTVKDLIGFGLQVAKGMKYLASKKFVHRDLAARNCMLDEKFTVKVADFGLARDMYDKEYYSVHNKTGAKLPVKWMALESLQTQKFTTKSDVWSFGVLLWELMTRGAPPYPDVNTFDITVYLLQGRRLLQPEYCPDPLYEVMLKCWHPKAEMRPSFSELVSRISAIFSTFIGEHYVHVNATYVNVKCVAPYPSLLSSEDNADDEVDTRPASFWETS

[7] = target: T1, Epidermal growth factor receptor; assay: Inhibition of EGFR autophosphorylation in EGF-stimulated human A431 cells after 1 hr by immunoblotting; format: cell-based, A-431
[8] = Cytotoxicity against human BXF 1218L cells after 4 days by propidium iodide staining-based fluorometric analysis; format: functional, cell-based; conditions: 96 h
[9] = Cytotoxicity against human BXF 1352L cells after 4 days by propidium iodide staining-based fluorometric analysis; format: functional, cell-based; conditions: 96 h
[10] = Cytotoxicity against human BXF T24 cells after 4 days by propidium iodide staining-based fluorometric analysis; format: functional, cell-based; conditions: T-24, 96 h
[11] = Cytotoxicity against human CXF 269L cells after 4 days by propidium iodide staining-based fluorometric analysis; format: functional, cell-based; conditions: 96 h
[12] = Cytotoxicity against human DIFI cells after 4 days by propidium iodide staining-based fluorometric analysis; format: functional, cell-based; conditions: 96 h
[13] = tested on: HCT-116; assay: Cytotoxicity against human HCT116 cells after 4 days by propidium iodide staining-based fluorometric analysis; format: functional, cell-based; conditions: HCT-116, 96 h
[14] = tested on: HT-29; assay: Cytotoxicity against human HT-29 cells after 4 days by propidium iodide staining-based fluorometric analysis; format: functional, cell-based; conditions: HT-29, 96 h
[15] = tested on: RKO; assay: Cytotoxicity against human RKO cells after 4 days by propidium iodide staining-based fluorometric analysis; format: functional, cell-based; conditions: 96 h
[16] = Cytotoxicity against human GXF251L cells after 4 days by propidium iodide staining-based fluorometric analysis; format: functional, cell-based; conditions: GXF 251L, 96 h
[17] = tested on: MKN-45; assay: Cytotoxicity against human MKN45 cells after 4 days by propidium iodide staining-based fluorometric analysis; format: functional, cell-based; conditions: MKN-45, 96 h
[18] = tested on: CAL-27; assay: Cytotoxicity against human CAL27 cells after 4 days by propidium iodide staining-based fluorometric analysis; format: functional, cell-based; conditions: CAL-27, 96 h
[19] = Cytotoxicity against human LIXF 575L cells after 4 days by propidium iodide staining-based fluorometric analysis; format: functional, cell-based; conditions: 96 h
[20] = tested on: NCI-H460; assay: Cytotoxicity against human H460 cells after 4 days by propidium iodide staining-based fluorometric analysis; format: functional, cell-based; conditions: NCI-H460, 96 h
[21] = Cytotoxicity against human LXFA 289L cells after 4 days by propidium iodide staining-based fluorometric analysis; format: functional, cell-based; conditions: 96 h
[22] = Cytotoxicity against human LXFA 526L cells after 4 days by propidium iodide staining-based fluorometric analysis; format: functional, cell-based; conditions: 96 h
[23] = Cytotoxicity against human LXFA 629L cells after 4 days by propidium iodide staining-based fluorometric analysis; format: functional, cell-based; conditions: 96 h
[24] = Cytotoxicity against human LXFL 1121L cells after 4 days by propidium iodide staining-based fluorometric analysis; format: functional, cell-based; conditions: 96 h
[25] = Cytotoxicity against human LXFL 529L cells after 4 days by propidium iodide staining-based fluorometric analysis; format: functional, cell-based; conditions: 96 h
[26] = Cytotoxicity against human MAXF 401NL cells after 4 days by propidium iodide staining-based fluorometric analysis; format: functional, cell-based; conditions: 96 h
[27] = tested on: MCF7; assay: Cytotoxicity against human MCF7 cells after 4 days by propidium iodide staining-based fluorometric analysis; format: functional, cell-based; conditions: MCF7, 96 h
[28] = Cytotoxicity against human MDA231 cells after 4 days by propidium iodide staining-based fluorometric analysis; format: functional, cell-based; conditions: MDA-MB-231, 96 h
[29] = Cytotoxicity against human MEXF 1341L cells after 4 days by propidium iodide staining-based fluorometric analysis; format: functional, cell-based; conditions: 96 h
[30] = Cytotoxicity against human MEXF 276L cells after 4 days by propidium iodide staining-based fluorometric analysis; format: functional, cell-based; conditions: MEXF276L, 96 h
[31] = Cytotoxicity against human MEXF 462NL cells after 4 days by propidium iodide staining-based fluorometric analysis; format: functional, cell-based; conditions: 96 h
[32] = Cytotoxicity against human OVXF 899L cells after 4 days by propidium iodide staining-based fluorometric analysis; format: functional, cell-based; conditions: 96 h
[33] = tested on: OVCAR-3; assay: Cytotoxicity against human OVCAR3 cells after 4 days by propidium iodide staining-based fluorometric analysis; format: functional, cell-based; conditions: OVCAR-3, 96 h
[34] = Cytotoxicity against human PAXF 1657L cells after 4 days by propidium iodide staining-based fluorometric analysis; format: functional, cell-based; conditions: 96 h
[35] = Cytotoxicity against human PAXF 546L cells after 4 days by propidium iodide staining-based fluorometric analysis; format: functional, cell-based; conditions: 96 h
[36] = tested on: PANC-1; assay: Cytotoxicity against human PANC1 cells after 4 days by propidium iodide staining-based fluorometric analysis; format: functional, cell-based; conditions: PANC-1, 96 h
[37] = tested on: CWR22R; assay: Cytotoxicity against human 22Rv1 cells after 4 days by propidium iodide staining-based fluorometric analysis; format: functional, cell-based; conditions: 22Rv1, 96 h
[38] = tested on: DU-145; assay: Cytotoxicity against human DU145 cells after 4 days by propidium iodide staining-based fluorometric analysis; format: functional, cell-based; conditions: DU-145, 96 h
[39] = tested on: LNCaP; assay: Cytotoxicity against human LNCAP cells after 4 days by propidium iodide staining-based fluorometric analysis; format: functional, cell-based; conditions: 96 h
[40] = Cytotoxicity against human PC3M cells after 4 days by propidium iodide staining-based fluorometric analysis; format: functional, cell-based; conditions: PC-3M, 96 h
[41] = Cytotoxicity against human PXF 1118L cells after 4 days by propidium iodide staining-based fluorometric analysis; format: functional, cell-based; conditions: 96 h
[42] = Cytotoxicity against human PXF 1752L cells after 4 days by propidium iodide staining-based fluorometric analysis; format: functional, cell-based; conditions: 96 h
[43] = Cytotoxicity against human PXF 698L cells after 4 days by propidium iodide staining-based fluorometric analysis; format: functional, cell-based; conditions: 96 h
[44] = Cytotoxicity against human RXF 1781L cells after 4 days by propidium iodide staining-based fluorometric analysis; format: functional, cell-based; conditions: 96 h
[45] = Cytotoxicity against human RXF 393NL cells after 4 days by propidium iodide staining-based fluorometric analysis; format: functional, cell-based; conditions: 96 h
[46] = Cytotoxicity against human RXF 486L cells after 4 days by propidium iodide staining-based fluorometric analysis; format: functional, cell-based; conditions: 96 h
[47] = tested on: SAOS-2; assay: Cytotoxicity against human Saos2 cells after 4 days by propidium iodide staining-based fluorometric analysis; format: functional, cell-based; conditions: SAOS-2, 96 h, read-out: IC50
[48] = tested on: TE-671; assay: Cytotoxicity against human TE671 cells after 4 days by propidium iodide staining-based fluorometric analysis; format: functional, cell-based; conditions: TE-671, 96 h
[49] = Cytotoxicity against human UXF 1138L cells after 4 days by propidium iodide staining-based fluorometric analysis; format: functional, cell-based; conditions: 96 h

Which results are given for `O=C(c1cc2cc(O)ccc2[nH]1)c1cc2c(Nc3ccc(F)c(Cl)c3)ncnc2s1`?
inhibition [1]: 98%; IC50 [2]: 0.024 µM; inhibition [3]: 87%; inhibition [4]: 10%; inhibition [5]: inactive; inhibition [6]: inactive; IC50 [7]: 0.1 µM; IC50 [8]: 6.34 µM; IC50 [9]: 5.97 µM; IC50 [10]: 9.56 µM; IC50 [11]: 7.58 µM; IC50 [12]: 0.94 µM; IC50 [13]: 7.69 µM; IC50 [14]: 13.7 µM; IC50 [15]: 6.01 µM; IC50 [16]: 4.09 µM; IC50 [17]: 7.26 µM; IC50 [18]: 1.28 µM; IC50 [19]: 7.04 µM; IC50 [20]: 6 µM; IC50 [21]: 3.25 µM; IC50 [22]: 4.36 µM; IC50 [23]: 2.65 µM; IC50 [24]: 6.02 µM; IC50 [25]: 4.87 µM; IC50 [26]: 4.09 µM; IC50 [27]: 4.22 µM; IC50 [28]: 7.65 µM; IC50 [29]: 5.89 µM; IC50 [30]: 6.28 µM; IC50 [31]: 6.02 µM; IC50 [32]: 4.07 µM; IC50 [33]: 9.08 µM; IC50 [34]: 9.08 µM; IC50 [35]: 8.85 µM; IC50 [36]: 7.95 µM; IC50 [37]: 5.61 µM; IC50 [38]: 2.96 µM; IC50 [39]: 3.01 µM; IC50 [40]: 5.45 µM; IC50 [41]: 9.59 µM; IC50 [42]: 8.19 µM; IC50 [43]: 9.23 µM; IC50 [44]: 4.87 µM; IC50 [45]: 5.87 µM; IC50 [46]: 3.37 µM; IC50 [47]: 8.2 µM; IC50 [48]: 10.1 µM; IC50 [49]: 3.45 µM

What does the source list for `CS(=O)(=O)CCNCc1ccc(-c2ccc3ncnc(Nc4ccc(OCc5cccc(F)c5)c(Cl)c4)c3c2)o1` [LAPATINIB]?
inhibition [5]: inactive; inhibition [6]: inactive; IC50 [8]: 11.8 µM; IC50 [9]: 11.5 µM; IC50 [10]: 9.65 µM; IC50 [11]: 8.36 µM; IC50 [12]: 0.235 µM; IC50 [13]: 13.1 µM; IC50 [14]: 4.62 µM; IC50 [15]: 5.35 µM; IC50 [16]: 1.48 µM; IC50 [17]: 11.5 µM; IC50 [18]: 0.53 µM; IC50 [19]: 7.18 µM; IC50 [20]: 13.5 µM; IC50 [21]: 5.79 µM; IC50 [22]: 4.21 µM; IC50 [23]: 2.87 µM; IC50 [24]: 7.73 µM; IC50 [25]: 3.51 µM; IC50 [26]: 5.8 µM; IC50 [27]: 4.83 µM; IC50 [28]: 7.7 µM; IC50 [29]: 4.85 µM; IC50 [30]: 11.4 µM; IC50 [31]: 10.1 µM; IC50 [32]: 3.35 µM; IC50 [33]: 13.4 µM; IC50 [34]: 11.1 µM; IC50 [35]: 6.12 µM; IC50 [36]: 8.12 µM; IC50 [37]: 6.06 µM; IC50 [38]: 2.99 µM; IC50 [39]: 3.68 µM; IC50 [40]: 4.55 µM; IC50 [41]: 6.86 µM; IC50 [42]: 9.46 µM; IC50 [43]: 9.49 µM; IC50 [44]: 7.67 µM; IC50 [45]: 7.77 µM; IC50 [46]: 9.1 µM; IC50 [47]: 9.38 µM; IC50 [48]: 11 µM; IC50 [49]: 4.4 µM
